# Data as given in US4559323A, “A41030 Antibiotics” (Eli Lilly and Company, priority 1984, dated 1985).
# Where two headings read alike, the source gives them in different places.
# Key:
# Fusobacterium symbiosum = test: Agar-dilution MIC (anaerobes); assay type: cell-based; conditions: Table 14; Fusobacterium symbiosum 1470
# Clostridium difficile [1] = assay type: cell-based; conditions: Table 14; Clostridium difficile 2994
# Clostridium difficile [2] = assay type: cell-based; conditions: Table 16
# Description: The A41030 antibiotic factors A, B, C, D, E, F, and G, are also active against a number of strains of Clostridium difficile, as determined by the agar-dilution method.
# [3] = Electrometric titration (pKa); assay type: physicochemical; conditions: electrometric titration in 66% dimethylformamide in water
# Peptococcus prevoti = test: Agar-dilution MIC (anaerobes); assay type: cell-based; conditions: Table 14; Peptococcus prevoti 1281
# [4] = system: Streptococcus sp. (Group D); test: Agar-dilution MIC; assay type: cell-based; conditions: Table 17, 24 hours
# Description: (§1) The agar-dilution procedure described by the International Collaborative study (ICS) group was used to determine the minimum inhibitory concentrations (MIC's).
# [5] = system: Staphylococcus epidermidis; test: Agar-dilution MIC; assay type: cell-based; conditions: Table 17; 24 hours; Staphylococcus epidermidis EPI1
# Description: as §1
# Streptococcus pyogenes = test: Agar-dilution MIC; assay type: cell-based; conditions: Table 17; 24 hours; Streptococcus pyogenes C203
# Description: as §1
# Streptococcus pneumoniae = test: Agar-dilution MIC; assay type: cell-based; conditions: Table 17; 24 hours; Streptococcus pneumoniae Park I
# Description: as §1
# Eubacterium aerofaciens = test: Agar-dilution MIC (anaerobes); assay type: cell-based; conditions: Table 14; Eubacterium aerofaciens 1235
# B. thetaiotaomicron = assay type: cell-based; conditions: Table 14; Bacteroides thetalotaomicron 1438
# Description: as §1
# Propionibacterium acnes = test: Agar-dilution MIC (anaerobes); assay type: cell-based; conditions: Table 14; Propionibacterium acnes 79
# Description: Antibiotic A41030 factors A, B and C have also been tested and found to be active against a genus of anaerobic bacteria identified as Propionibacterium acnes.
# Staphylococcus aureus = test: Agar-dilution MIC; assay type: cell-based; conditions: Table 17, 24 hours
# S. pyogenes = test: Experimental bacterial infection in mice, subcutaneous ED50; assay type: in vivo; conditions: two doses subcutaneously
# Protocol: (§2) All of the A41030 factors tested have shown in vivo antimicrobial activity against experimental bacterial infections. When two doses of test compound were administered subcutaneously to mice in illustrative infections, the activity observed is measured as an ED50 value [effective dose in mg./kg. to protect fifty percent of the test animals: See Warren Wick, et al., J. Bacteriol. 81, 233-235 (1961)].
# Staph. aureus = test: as above; assay type: in vivo; conditions: two doses subcutaneously
# Protocol: as §2
# S. pneumoniae = test: as above; assay type: in vivo; conditions: two doses subcutaneously
# Protocol: as §2
# Bacteroides corrodens = test: Agar-dilution MIC (anaerobes); assay type: cell-based; conditions: Table 14; Bacteroides corrodens 1874
# Clostridium perfringens = assay type: cell-based; conditions: Table 14; Clostridium perfringens 81
# Bacteroides fragilis = test: Agar-dilution MIC (anaerobes); assay type: cell-based; conditions: Table 14
# Description: as §1
# Hemophilus influenzae = test: Agar-dilution MIC; assay type: cell-based; conditions: Table 17, 24 hours
# Salmonella typhi = test: Agar-dilution MIC; assay type: cell-based; conditions: Table 17, 24 hours
# Solubility in solvents = assay type: physicochemical; conditions: solvents as named
# Description: The seven antibiotic factors are recovered from the fermentation and are obtained as a mixture, the A41030 complex. It will be recognized that the ratio of the factors in the A41030 complex will vary, depending upon the fermentation conditions used. The individual factors […], and G are separated and isolated as individual compounds, as hereinafter described.
# [6] = system: Peptostreptococcus anaerobius; test: Agar-dilution MIC (anaerobes); assay type: cell-based; conditions: Table 14; Peptostreptococcus anaerobius 1428
# [7] = system: Peptococcus asaccharolyticus; test: Agar-dilution MIC (anaerobes); assay type: cell-based; conditions: Table 14; Peptococcus asaccharolyticus 1302
# Clostridium septicum = test: Agar-dilution MIC (anaerobes); assay type: cell-based; conditions: Table 14; Clostridium septicum 1128
# [8] = system: Peptostreptococcus intermedius; test: Agar-dilution MIC (anaerobes); assay type: cell-based; conditions: Table 14; Peptostreptococcus intermedius 1264
# [9] = system: Bacteroides melaninogenicus; test: Agar-dilution MIC (anaerobes); assay type: cell-based; conditions: Table 14; Bacteroides melaninogenicus 2736
# Bacteroides vulgatis = test: Agar-dilution MIC (anaerobes); assay type: cell-based; conditions: Table 14; Bacteroides vulgatis 1211
# [10] = system: Fusobacterium necrophorum; test: Agar-dilution MIC (anaerobes); assay type: cell-based; conditions: Table 14; Fusobacterium necrophorum 6054A
substance,measurement,setting,value
A41030 factor E,MIC,Fusobacterium symbiosum,1.0 µg/mL
same,MIC,Clostridium difficile [1],0.5 µg/mL
same,MIC,Clostridium difficile [2]; C. difficile 78,0.5 µg/mL
same,MIC,Clostridium difficile [2]; C. difficile 107B,0.5 µg/mL
same,MIC,Clostridium difficile [2]; C. difficile 111F,0.5 µg/mL
same,MIC,Clostridium difficile [2]; C. difficile 1153,1.0 µg/mL
same,MIC,Clostridium difficile [2]; C. difficile 2634,1.0 µg/mL
same,MIC,Clostridium difficile [2]; C. difficile 3424-5B,0.5 µg/mL
same,MIC,Clostridium difficile [2]; C. difficile 3816,0.5 µg/mL
same,MIC,Clostridium difficile [2]; C. difficile 3950,0.5 µg/mL
same,MIC,Clostridium difficile [2]; C. difficile 6890,0.5 µg/mL
same,MIC,Clostridium difficile [2]; C. difficile 8484,0.5 µg/mL
same,MIC,Clostridium difficile [2]; C. difficile A-194,0.5 µg/mL
same,MIC,Clostridium difficile [2]; C. difficile A-195,0.5 µg/mL
same,MIC,Clostridium difficile [2]; C. difficile A-196,1.0 µg/mL
same,MIC,Clostridium difficile [2]; C. difficile A-279,0.5 µg/mL
same,MIC,Clostridium difficile [2]; C. difficile A-280,0.5 µg/mL
same,MIC,Clostridium difficile [2]; C. difficile A-281,1.0 µg/mL
same,MIC,Clostridium difficile [2]; C. difficile WAL-2112,0.5 µg/mL
same,MIC,Clostridium difficile [2]; C. difficile WAL-3657,0.5 µg/mL
same,MIC,Clostridium difficile [2]; C. difficile WAL-4268,0.5 µg/mL
same,"pKa, first titratable group",[3],about 5.8
same,"pKa, second titratable group",[3],~7.7
same,MIC,Peptococcus prevoti,32 µg/mL
same,MIC,[4]; Streptococcus sp. Group D 9960,1 µg/mL
same,MIC,[4]; Streptococcus sp. Group D X66,1 µg/mL
same,MIC,[5],0.25 µg/mL
same,MIC,Streptococcus pyogenes,0.25 µg/mL
same,MIC,Streptococcus pneumoniae,0.25 µg/mL
same,MIC,Eubacterium aerofaciens,0.5 µg/mL
same,MIC,B. thetaiotaomicron,64 µg/mL
same,MIC,Propionibacterium acnes,0.5 µg/mL
same,MIC,Staphylococcus aureus; Staphylococcus aureus 3055,0.125 µg/mL
same,MIC,Staphylococcus aureus; Staphylococcus aureus S13E,0.25 µg/mL
same,MIC,Staphylococcus aureus; Staphylococcus aureus V41,0.25 µg/mL
same,MIC,Staphylococcus aureus; Staphylococcus aureus X400,0.25 µg/mL
same,ED50,S. pyogenes,3.54 mg/kg
same,ED50,Staph. aureus,< 0.31 mg/kg
same,ED50,S. pneumoniae,3.11 mg/kg
same,MIC,Bacteroides corrodens,64 µg/mL
same,MIC,Clostridium perfringens,1.0 µg/mL
same,MIC,Bacteroides fragilis; Bacteroides fragilis 111,64 µg/mL
same,MIC,Bacteroides fragilis; Bacteroides fragilis 1877,32 µg/mL
same,MIC,Bacteroides fragilis; Bacteroides fragilis 1936B,64 µg/mL
same,MIC,Hemophilus influenzae; Haemophilus influenzae 76,8 µg/mL
same,MIC,Hemophilus influenzae; Haemophilus influenzae C.L.,8 µg/mL
same,MIC,Salmonella typhi; Salmonella typhi 1335,> 128 µg/mL
same,MIC,Salmonella typhi; Salmonella typhi X514,> 128 µg/mL
same,Solubility,Solubility in solvents,soluble in the same solvents as factor A
same,MIC,[6],32 µg/mL
same,MIC,[7],≤ 0.25 µg/mL
same,MIC,Clostridium septicum,0.5 µg/mL
same,MIC,[8],32 µg/mL
same,MIC,[9],32 µg/mL
same,MIC,Bacteroides vulgatis,32 µg/mL
same,MIC,[10],0.5 µg/mL
